Assay results: patent publication US20030092735A1, “Use of substance P antagonists for the treatment of chronic fatigue syndrome and/or fibromyalgia and use of NK-1 receptor antagonists for the treatment of chronic fatigue syndrome” (priority 1998, published 2003)

Legend:
[1] = system: patients who meet the ACR criteria for primary fibromyalgia; settings: Amitryptilin regarded as an effective treatment in fibromyalgia; comparator value; cited from earlier work
[2] = system: Patients with chronic fatigue syndrome; experiment: CFS Clinical Study (randomized, double-blind, placebo-controlled); type: in vivo, human; settings: doses of 10 to 20 mg/day, myalgias, cognitive impairment, baseline vs end of treatment
Excerpt: Patients with chronic fatigue syndrome according to the CDC (Centre for Disease Control) definition (G. P. Holmes et al.: A working case definition. Ann. intern. Med; 108 (1988), 387-389) are included in the trial. Other recognised definitions may be used to identify patients with chronic fatigue syndrome as appropriate. Both male and female patients are eligible, provided they are over 18 years of age and under 65 years of age. The main exclusion criteria comprise pregnant and lactating women; in addition patients suffering from other diseases that cause significant fatigue as well as patients who suffer from active infections are excluded. […]
The study is in the form of a prospective, randomized, double-blind, placebo-controlled, parallel-group study using different doses of a Preferred A Compound of the Invention, (e.g. (2R,4S)-N-[1-(3,5-bistrifluoromethylbenzoyl)-2-(4-chlorobenzyl)-piperidin-4-yl-quinolin-4-carboxamide). […] Adverse events are assessed during the active treatment period. […]
Other parameters which are evaluated include cognitive impairment (to be measured by visual analog scale [VAS]) and the assessment of myalgias. […] The assessment of each body region is done by the patients themselves; the total score is calculated as the sum of the regional scores. […]

[3] = system: patients who meet the ACR criteria for primary fibromyalgia; experiment: Fibromyalgia Clinical Study (randomized, double-blind, placebo-controlled); type: in vivo, human; settings: doses of 10 to 20 mg/day; response = 35% or higher reduction in individual pain score, baseline versus end of treatment
Excerpt: The study is in the form of a prospective, randomized, double-blind, placebo-controlled, parallel-group study using different doses of Compound of the Invention. Male and female patients (over 18 years) who meet the ACR (American College of Rheumatology) cirteria for primary fibromyalgia are included in this trial. The main exclusion criteria include pregnant and lactating woman, patients suffering from other inflammatory rheumatological diseases (such as rheumatoid arthritis or collagenoses), severe neuropathies, clinically manifest endocrinopathies, bone diseases, severe cardial, renal or hepatic impairment and acute or chronic infections.
Patients are randomly assigned to one of five study arms, placebo, 1 mg, 10 mg, 20 mg and 40 mg of test compound. The duration of treatment is two weeks. Before, on day 7 and at the end of the treatment phase, a physical examination, pain assessment and blood testing are performed. […] Adverse events are assessed during the active treatment period.
To evaluate pain, the pain score, a visual analogue scale and clinical examination of tenderpoints is used. […] The assessment of each body region is done by the patients themselves; the total score is calculated as the sum of the regional scores. […]

SMILES | response rates in fibromyalgia (of patients) [1] [%] | reduction in the score for one or more symptoms of CFS [2] [%] | response rates for fibromyalgia treatment [3]
CN(C)CCC=C1c2ccccc2CCc2ccccc21 [Amitryptilin] | 20 to 30 | – | –
O=C(N[C@H]1CCN(C(=O)c2cc(C(F)(F)F)cc(C(F)(F)F)c2)[C@H](Cc2ccc(Cl)cc2)C1)c1ccnc2ccccc12 [(2R,4S)-N-[1-(3,5-bistrifluoromethylbenzoyl)-2-(4-chlorobenzyl)-piperidin-4-yl-quinolin-4-carboxamide] | – | ≥ 20 | at least equivalent to or comparable with those achieved with Amitryptilin
